The target of one assay is T1, human CYP11B2 (Homo sapiens, UniProt P19099).
T1 construct: expressed in transfected cells
T1 sequence (P19099 25-503): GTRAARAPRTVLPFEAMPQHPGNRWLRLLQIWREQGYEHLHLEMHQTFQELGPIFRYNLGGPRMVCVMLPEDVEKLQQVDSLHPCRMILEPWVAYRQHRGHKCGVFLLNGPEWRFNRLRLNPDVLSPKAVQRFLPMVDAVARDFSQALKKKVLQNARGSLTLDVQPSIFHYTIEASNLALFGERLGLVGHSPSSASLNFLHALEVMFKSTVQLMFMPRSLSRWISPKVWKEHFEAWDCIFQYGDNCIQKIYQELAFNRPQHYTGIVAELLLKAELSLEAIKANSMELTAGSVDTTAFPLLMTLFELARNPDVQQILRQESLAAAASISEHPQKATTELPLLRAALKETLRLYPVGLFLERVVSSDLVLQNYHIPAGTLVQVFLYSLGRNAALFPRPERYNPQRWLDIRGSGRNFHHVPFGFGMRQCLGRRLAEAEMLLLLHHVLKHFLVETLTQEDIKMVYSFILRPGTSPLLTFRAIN
The experiment in a line: G-402 cellular enzyme assay, human CYP11B2 (aldosterone release, HTRF). The conditions noted are these: G-402 cells, 1 μM Deoxycorticosterone. In kind it is cell-based. The method, boiled down: (§1)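 Stable G-402 transfectants; 16 h incubation with inhibitor plus substrate — CYP11B2: 1 μM deoxycorticosterone, aldosterone read; CYP11B1: 1 μM deoxycortisol, cortisol read. HTRF on supernatant. Medium DMEM/F12, 2.5% charcoal FCS. EC50 via MMF sigmoidal fit.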
Background: In TR-FRET formats the signal depends on donor and acceptor labels being close together.

The target in another assay is T2, human CYP11B1 (Homo sapiens, UniProt P15538).
T2 construct: expressed in transfected cells
T2 sequence (P15538 25-503): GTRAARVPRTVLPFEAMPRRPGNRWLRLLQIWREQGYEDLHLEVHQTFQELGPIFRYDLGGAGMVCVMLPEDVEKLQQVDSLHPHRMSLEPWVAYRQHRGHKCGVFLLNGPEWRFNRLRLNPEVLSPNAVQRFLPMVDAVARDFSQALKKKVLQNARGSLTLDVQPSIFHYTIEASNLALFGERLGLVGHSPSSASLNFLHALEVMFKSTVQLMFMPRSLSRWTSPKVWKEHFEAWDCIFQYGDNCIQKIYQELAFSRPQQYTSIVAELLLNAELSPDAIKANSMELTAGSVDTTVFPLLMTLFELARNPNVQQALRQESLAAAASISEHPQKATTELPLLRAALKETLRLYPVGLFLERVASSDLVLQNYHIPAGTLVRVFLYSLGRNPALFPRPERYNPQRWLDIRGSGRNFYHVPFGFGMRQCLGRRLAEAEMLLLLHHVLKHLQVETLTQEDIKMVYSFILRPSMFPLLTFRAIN
Description: G-402 cellular enzyme assay, human CYP11B1 (cortisol release, HTRF). In kind it is cell-based. The conditions noted are these: G-402 cells, 1 μM Deoxycortisol. The method, boiled down:
as §1

Take `CS(=O)(=O)NC1CCCc2c1cncc2N1Cc2cc(Cl)ccc2C1=O` (single isomer, unassigned) [Example 327, N-[(R or S)-4-(5-Chloro-1-oxo-1,3-dihydro-isoindol-2-yl)-5,6,7,8-tetrahydro-isoquinolin-8-yl]-methanesulfonamide]: the EC50 on human CYP11B2 turned out to be 1.36 µM; on human CYP11B1, 10.7 µM.

For the compound `CC1(C)c2ccc(Cl)cc2C(=O)N1c1cncc(CNS(C)(=O)=O)c1` [Example 408, N-[5-(5-Chloro-1,1-dimethyl-3-oxo-1,3-dihydro-isoindol-2-yl)-pyridin-3-ylmethyl]-methane-sulfonamide], the EC50 at human CYP11B2 came to 0.923 µM; on human CYP11B1, 14.3 µM.

Turning to `CCC(=O)N[C@@H]1CCCc2c1cncc2N1C(=O)c2cc(Cl)ccc2[C@H]1CC` (single isomer, unassigned) [Example 312, N-[(R or S)-4-((R or S)-5-Chloro-1-ethyl-3-oxo-1,3-dihydro-isoindol-2-yl)-5,6,7,8-tetrahydro-isoquinolin-8-yl]-propionamide], the EC50 at human CYP11B2 amounted to 0.0482 µM; at human CYP11B1, 4.01 µM.

`CC1(C)c2nc(Cl)ccc2C(=O)N1c1cccnc1` [Example 298, 2-Chloro-7,7-dimethyl-6-pyridin-3-yl-6,7-dihydro-pyrrolo[3,4-b]pyridin-5-one]: the figures for the EC50 at human CYP11B2 and at human CYP11B1 were 0.175 µM and 13.7 µM, respectively.

Regarding `COC(=O)[C@@H]1CCCN1Cc1cncc(N2CCc3cc(Cl)ccc3C2=O)c1` [Example 84, (S)-1-[5-(6-Chloro-1-oxo-3,4-dihydro-1H-isoquinolin-2-yl)-pyridin-3-ylmethyl]-pyrrolidine-2-carboxylic acid methyl ester], the values for the EC50 at human CYP11B2 and on human CYP11B1 were 0.225 µM and 4.83 µM, respectively.

With `CC(c1cncc(N2CCc3cc(Cl)ccc3C2=O)c1)n1cccn1` (stereo not drawn) [Example 271, 6-Chloro-2-[5-(1-pyrazol-1-yl-ethyl)-pyridin-3-yl]-3,4-dihydro-2H-isoquinolin-1-one], the concentration giving a half-maximal response (EC50) at human CYP11B2 is 0.0248 µM; at human CYP11B1, 0.251 µM.

Take `CC(O)(c1cc(F)cc(F)c1)c1cncc(N2CCc3cc(Cl)ccc3C2=O)c1` (stereo not drawn) [Example 37, 6-Chloro-2-{5-[1-(3,5-difluoro-phenyl)-1-hydroxy-ethyl]-pyridin-3-yl}-3,4-dihydro-2H-isoquinolin-1-one]: the EC50 on human CYP11B2 was 0.0092 µM; on human CYP11B1, 0.149 µM.

For the compound `CC(NS(C)(=O)=O)c1cncc(N2CCc3cc(Cl)ccc3C2=O)c1` (stereo not drawn) [Example 276, N-{1-[5-(6-Chloro-1-oxo-3,4-dihydro-1H-isoquinolin-2-yl)-pyridin-3-yl]-ethyl}-methanesulfonamide], the EC50 is 0.284 µM at human CYP11B2 and 2.03 µM at human CYP11B1.

For the compound `O=Cc1cncc(N2CCc3cc(Cl)ccc3C2=O)c1` [Example 9, 5-(6-Chloro-1-oxo-3,4-dihydro-1H-isoquinolin-2-yl)-pyridine-3-carbaldehyde], the concentration giving a half-maximal response (EC50) on human CYP11B2 came out at 0.117 µM; at human CYP11B1, 4.74 µM.

Consider `CC(O)c1cncc(N2C(=O)c3ccc(Cl)cc3C2(C)C)c1` (stereo not drawn) [Example 132, 5-Chloro-2-[5-(1-hydroxy-ethyl)-pyridin-3-yl]-3,3-dimethyl-2,3-dihydro-isoindol-1-one], for which the EC50 on human CYP11B2 was found to be 0.0378 µM; on human CYP11B1 it was 0.527 µM.

In the case of `CC1Cc2cc(Cl)ccc2C(=O)N1c1cncc(CO)c1` (stereo not drawn) [Example 86, 6-Chloro-2-(5-hydroxymethyl-pyridin-3-yl)-3-methyl-3,4-dihydro-2H-isoquinolin-1-one], the results for the concentration giving a half-maximal response (EC50) at human CYP11B2 and at human CYP11B1 were 0.377 µM and 7.77 µM, respectively.

As for `Cc1ccnn1Cc1cncc(N2CCc3cc(Cl)ccc3C2=O)c1` [Example 71, 6-Chloro-2-[5-(5-methyl-pyrazol-1-ylmethyl)-pyridin-3-yl]-3,4-dihydro-2H-isoquinolin-1-one], the EC50 on human CYP11B2 was found to be 0.0902 µM; on human CYP11B1 it was 1.58 µM.

For the compound `CC(=O)N1CCC(c2cncc(N3C(=O)c4ccc(Cl)cc4C3(C)C)c2)CC1` [Example 461, 2-(1′-Acetyl-1′,2′,3′,4′,5′,6′-hexahydro-[3,4′]bipyridinyl-5-yl)-5-chloro-3,3-dimethyl-2,3-dihydro-isoindol-1-one], the EC50 on human CYP11B2 worked out at 0.004 µM; at human CYP11B1, 0.361 µM.

Regarding `COC(C)(C)c1cncc(N2CCc3cc(Cl)ccc3C2=O)c1` [Example 24, 6-Chloro-2-[5-(1-methoxy-1-methyl-ethyl)-pyridin-3-yl]-3,4-dihydro-2H-isoquinolin-1-one], the half-maximal effective concentration (EC50) at human CYP11B2 amounted to 0.0056 µM; on human CYP11B1, 0.0214 µM.

As to `O=C1c2ccc(Cl)cc2CCN1c1cncc2c1CCCC2O` (stereo not drawn) [Example 28, 6-Chloro-8′-hydroxy-3,4,5′,6′,7′,8′-hexahydro-[2,4′]biisoquinolinyl-1-one], the EC50 at human CYP11B2 is 0.104 µM; on human CYP11B1, 0.757 µM.

For the compound `COc1cncc(N2C(=O)c3ccc(Cl)cc3C2C)c1` (stereo not drawn) [Example 120, 5-Chloro-2-(5-methoxy-pyridin-3-yl)-3-methyl-2,3-dihydro-isoindol-1-one], the values for the EC50 on human CYP11B2 and on human CYP11B1 were 0.0247 µM and 0.207 µM, respectively.

As to `O=C1c2ccc(Cl)cc2CCN1c1cncc(Cn2cncn2)c1` [Example 180, 6-Chloro-2-(5-[1,2,4]triazol-1-ylmethyl-pyridin-3-yl)-3,4-dihydro-2H-isoquinolin-1-one], the figures for the EC50 at human CYP11B2 and at human CYP11B1 were 0.123 µM and 0.802 µM, respectively.

As to `Cn1ccnc1C(=O)c1cncc(N2CCc3cc(Cl)ccc3C2=O)c1` [Example 267, 6-Chloro-2-[5-(1-methyl-4H-imidazole-2-carbonyl)-pyridin-3-yl]-3,4-dihydro-2H-isoquinolin-1-one], the figures for the EC50 at human CYP11B2 and at human CYP11B1 were 1.61 µM and 11.3 µM, respectively.

For the compound `Cc1n[nH]cc1-c1cncc(N2CCc3cc(Cl)ccc3C2=O)c1` [Example 419, 6-Chloro-2-[5-(3-methyl-1H-pyrazol-4-yl)-pyridin-3-yl]-3,4-dihydro-2H-isoquinolin-1-one], the figures for the EC50 on human CYP11B2 and on human CYP11B1 were 0.0091 µM and 0.122 µM, respectively.

Take `O=C1c2ccc(Cl)c(Cl)c2CCN1c1cccnc1` [Example 95, 5,6-Dichloro-2-pyridin-3-yl-3,4-dihydro-2H-isoquinolin-1-one]: the concentration giving a half-maximal response (EC50) at human CYP11B2 stood at 0.327 µM; on human CYP11B1 it was 10.3 µM.

Consider `CC(C)Oc1cncc(N2CCc3cc(Cl)ccc3C2=O)c1` [Example 11, 6-Chloro-2-(5-isopropoxy-pyridin-3-yl)-3,4-dihydro-2H-isoquinolin-1-one], for which the concentration giving a half-maximal response (EC50) at human CYP11B2 turned out to be 0.0127 µM; on human CYP11B1, 0.257 µM.

Regarding `CCS(=O)(=O)N1CCC(Oc2cncc(N3C(=O)c4ccc(Cl)cc4C3(C)C)c2)C1` (stereo not drawn) [Example 446, 5-Chloro-2-[5-(1-ethanesulfonyl-pyrrolidin-3-yloxy) -pyridin-3-yl]-3,3-dimethyl-2,3-dihydro-isoindol-1-one], the EC50 on human CYP11B2 was found to be 0.185 µM; on human CYP11B1, 0.263 µM.

Consider `NC1CCCc2c1cncc2N1Cc2cc(Cl)ccc2C1=O` (stereo not drawn) [Example 311, 2-(8-Amino-5,6,7,8-tetrahydro-isoquinolin-4-yl)-5-chloro-2,3-dihydro-isoindol-1-one], for which the results for the concentration for a half-maximal effect (EC50) on human CYP11B2 and at human CYP11B1 were 0.813 µM and 6.48 µM, respectively.

For `CCS(=O)(=O)NC1CCc2c1cncc2N1Cc2cc(Cl)ccc2C1=O` (single isomer, unassigned) [Example 336, Ethanesulfonic acid [(R or S)-4-(5-chloro-1-oxo-1,3-dihydro-isoindol-2-yl)-6,7-dihydro-5H-[2]pyrindin-7-yl]-amide], the 50% effective concentration (EC50) was 0.949 µM on human CYP11B2 and 30 µM on human CYP11B1.

With `CC(=O)N1CCCC(c2cncc(N3C(=O)c4ccc(Cl)cc4C3(C)C)n2)C1` (stereo not drawn) [Example 462, 2-[6-(1-Acetyl-piperidin-3-yl)-pyrazin-2-yl]-5-chloro-3,3-dimethyl-2,3-dihydro-isoindol-1-one], the results for the EC50 at human CYP11B2 and on human CYP11B1 were 0.0326 µM and 0.72 µM, respectively.

Take `CC(OCc1cncc(N2CCc3cc(Cl)ccc3C2=O)c1)C(F)(F)F` (stereo not drawn) [Example 195, 6-Chloro-2-[5-(2,2,2-trifluoro-1-methyl-ethoxymethyl)-pyridin-3-yl]-3,4-dihydro-2H-isoquinolin-1-one]: the EC50 at human CYP11B2 turned out to be 0.0373 µM; at human CYP11B1 it was 0.486 µM.

As for `COC(c1ccncc1N1CCc2cc(Cl)ccc2C1=O)C1CC1` (stereo not drawn) [Example 78, 6-Chloro-2-[4-(cyclopropyl-methoxy-methyl)-pyridin-3-yl]-3,4-dihydro-2H-isoquinolin-1-one], the EC50 turned out to be 0.761 µM at human CYP11B2 and 1.45 µM at human CYP11B1.

By EC50 is commonly meant the concentration that produces a half-maximal response. Low readings indicate an effect from little substance, high ones a need for much substance.

Source of the values: patent US9133158B2, “Bicyclic dihydroisoquinoline-1-one derivatives” (Hoffmann-La Roche Inc., priority 2011, dated 2015).
